Read-outs that look alike come from different tables or passages of the source.
Columns and labels:
HIV-1MDR/JSL = assay: microbe, parasite or virus in culture; assay type: cell-based; details: for EC50: Human immunodeficiency virus 1, read-out: EC50 (μM), HIV-1MDR/JSL (NSI); for n-fold change of EC50, HIV-1MDR/JSL: compared to wild-type HIV-1ERS104pre
Description: (§1) The susceptibility of HIV-1LAI and primary HIV-1 isolates to various drugs were determined as described previously (Koh et al. 2003 Antimicrob Agents Chemother 47:3123-9). Briefly, MT-2 cells (2×10^4/ml) were exposed to 100 50% tissue culture infectious doses (TCID50S) of HIV-1LAI, in the presence or absence of various concentrations of drugs in 96-well microculture plates and were incubated at 37° C. for 7 days. After 100 μl of the medium was removed from each well, 3-(4,5-dimetylthiazol-2-yl)-2,5-diphenyltetrazolium bromide (MTT) solution (10 μl, 7.5 mg/ml in phosphate-buffered saline) was added to each well in the plate, followed by incubation at 37° C. for 3 h. […] All assays were performed in duplicate or triplicate. To determine the susceptibility of primary HIV-1 isolates to drugs, phytohemagglutinin-activated peripheral blood mononuclear cells (PHA-PBMCs; 106/ml) were exposed to 50 TCID50S of each. The target cells were exposed to HIV-1104pre or drug-resistant HIV-1 in the presence or absence of various concentrations of drugs and were incubated for 7 days. Upon the conclusion of the culture, the amounts of p24 Gag protein in the supernatants were determined using a fully automated chemiluminescent enzyme immunoassay system (Lumipulse F; Fujirebio Inc., Tokyo, Japan) (Maeda et al. 2001 J Biol Chem 276:35194-200). To determine the drug susceptibility of certain laboratory HIV-1 strains, MT-4 cells were used as target cells. In brief, MT-4 cells (10^5/ml) were exposed to 100 TCID50S of drug-resistant HIV-1 strains in the presence or absence of various concentrations of drugs and on day 7 of culture, the supernatant was harvested and the amounts of p24 Gag protein were determined. […] All assays were performed in duplicate or triplicate.
(§2) These clinical strains contained 9 to 14 amino acid substitutions in the protease-encoding region, which have reportedly been associated with HIV-1 resistance to various PIs.
(§3) Amino acid substitutions identified in the protease-encoding region compared to the consensus type B sequence cited from the Los Alamos database include L63P in HIV-1ERS104pre; L10I, K14R, L33I, M36I, M46I, F53I, K55R, I62V, L63P, A71V, G73S, V82A, L90M, and I93L in HIV-1MDR/B; L10I, I15V, K20R, L24I, M36I, M46L, I54V, I62V, L63P, K70Q, V82A, and L89M in HIV-1MDR/C; L10I, V11I, T12E, I15V, L19I, R41K, M46L, L63P, A71T, V82A, and L90M in HIV-1MDR/G; L10I, K14R, R41K, M46L, I54V, L63P, A71V, V82A, L90M, I93L in HIV-1MDR/TM; L10I, K43T, M46L, I54V, L63P, A71V, V82A, L90M, and Q92K in HIV-1MDR/MM; L10I, L24I, I33F, E35D, M36I, N37S, M46L, I54V, R57K, I62V, L63P, A71V, G73S, and V82A in HIV-1MDR/JSL. HIV-1ERS104pre served as a source of wild-type HIV-1. EC50s were determined by using PHA-PBMs as target cells, and inhibition of p24 Gag protein production by each drug was used as an end point. Numbers in parentheses represent n-fold changes of EC50s for each isolate compared to EC50s for wild-type HIV-1ERS104pre.

[1] = test system: multidrug-resistant clinical HIV-1 isolates (HIV-1MDR); assay: microbe, parasite or virus in culture; assay type: cell-based; details: Human immunodeficiency virus 1, read-out: EC50 with multidrug-resistant clinical HIV-1 isolates (mostly)
Description: as §1, §2, §3

HIV-1MDR/MM = assay: microbe, parasite or virus in culture; assay type: cell-based; details: for EC50: Human immunodeficiency virus 1, read-out: EC50 (μM), HIV-1MDR/MM (NSI); for n-fold change of EC50, HIV-1MDR/MM: compared to wild-type HIV-1ERS104pre
Description: as §1, §2, §3

[2] = test system: HIV-1ERS104pre (wild-type); assay: p24 Gag inhibition in PHA-PBMCs, HIV-1ERS104pre; assay type: cell-based; details: mean ± 1 SD
Description: as §1, §2, §3

HIV-1MDR/C = assay type: cell-based; details: for EC50 (μM), HIV-1MDR/C (SI): PHA-PBMCs, p24 Gag; for n-fold change of EC50, HIV-1MDR/C: compared to wild-type HIV-1ERS104pre
Description: as §1, §2, §3

HIV-1MDR/G = assay type: cell-based; details: for EC50 (μM), HIV-1MDR/G (SI): PHA-PBMCs, p24 Gag; for n-fold change of EC50, HIV-1MDR/G: compared to wild-type HIV-1ERS104pre
Description: as §1, §2, §3

HIV-1MDR/TM = assay type: cell-based; details: for EC50 (μM), HIV-1MDR/TM (SI): PHA-PBMCs, p24 Gag; for n-fold change of EC50, HIV-1MDR/TM: compared to wild-type HIV-1ERS104pre
Description: as §1, §2, §3

HIV-1MDR/B = assay type: cell-based; details: for EC50 (μM), HIV-1MDR/B (SI): PHA-PBMCs, p24 Gag; for n-fold change of EC50, HIV-1MDR/B: compared to wild-type HIV-1ERS104pre
Description: as §1, §2, §3

HIV-1216-P50 = assay: microbe, parasite or virus in culture; assay type: cell-based, HIV-1; details: Human immunodeficiency virus 1, MT4, read-out: EC50 (μM), HIV-1216-p50
Description: (§4) Briefly, MT-2 cells (2×10^4/ml) were exposed to 100 50% tissue culture infectious doses (TCID50S) of HIV-1LAI, in the presence or absence of various concentrations of drugs in 96-well microculture plates and were incubated at 37° C. for 7 days. After 100 μl of the medium was removed from each well, 3-(4,5-dimetylthiazol-2-yl)-2,5-diphenyltetrazolium bromide (MTT) solution (10 μl, 7.5 mg/ml in phosphate-buffered saline) was added to each well in the plate, followed by incubation at 37° C. for 3 h. […] All assays were performed in duplicate or triplicate. […] To determine the drug susceptibility of certain laboratory HIV-1 strains, MT-4 cells were used as target cells. In brief, MT-4 cells (10^5/ml) were exposed to 100 TCID50S of drug-resistant HIV-1 strains in the presence or absence of various concentrations of drugs and on day 7 of culture, the supernatant was harvested and the amounts of p24 Gag protein were determined. […] All assays were performed in duplicate or triplicate.
(§5) Numbers in parentheses represent n-fold changes in EC50s for each isolate compared to the EC50s for wild-type HIV-1NL4-3.

HIV-1246-1μM = assay: microbe, parasite or virus in culture; assay type: cell-based, HIV-1; details: Human immunodeficiency virus 1, MT4, read-out: EC50 (μM), HIV-1246-1 μM
Description: as §4, §5

HIV-1396-1μM = assay: microbe, parasite or virus in culture; assay type: cell-based, HIV-1; details: Human immunodeficiency virus 1, MT4, read-out: EC50 (μM), HIV-1396-1 μM
Description: as §4, §5

HIV-1APV5μM = assay: microbe, parasite or virus in culture; assay type: cell-based; details: for EC50: Human immunodeficiency virus 1, MT4, read-out: EC50 (μM), HIV-1APV5 μM
Description: as §1, §5

HIV-1SQV5μM = assay: microbe, parasite or virus in culture; assay type: cell-based; details: for EC50: Human immunodeficiency virus 1, MT4, read-out: EC50 (μM), HIV-1SQV5 μM
Description: as §1, §5

HIV-1AZV5μM = assay: microbe, parasite or virus in culture; assay type: cell-based; details: for EC50: Human immunodeficiency virus 1, MT4, read-out: EC50 (μM), HIV-1AZV5 μM
Description: as §1, §5

HIV-1LPV5μM = assay: microbe, parasite or virus in culture; assay type: cell-based; details: for EC50: Human immunodeficiency virus 1, MT4, read-out: EC50 (μM), HIV-1LPV5 μM
Description: as §1, §5

HIV-1NFV5μM = assay: microbe, parasite or virus in culture; assay type: cell-based; details: for EC50: Human immunodeficiency virus 1, MT4, read-out: EC50 (μM), HIV-1NPV5 μM
Description: as §1, §5

HIV-1NL4-3 = assay: p24 Gag inhibition in MT-4 cells, HIV-1NL4-3; assay type: cell-based
Description: All assays were performed in duplicate or triplicate. […] All assays were performed in duplicate or triplicate.

[3] = compared to wild-type HIV-1NL4-3

Row | Structure (SMILES) | EC50 (HIV-1MDR/JSL) | n-fold change of EC50, HIV-1MDR/JSL (HIV-1MDR/JSL) | EC50 (HIV-1MDR/MM) | n-fold change of EC50, HIV-1MDR/MM (HIV-1MDR/MM) | EC50 (μM), HIV-1ERS104pre (wild-type SI) [2] | EC50 (μM), HIV-1MDR/C (SI) (HIV-1MDR/C) | n-fold change of EC50, HIV-1MDR/C (HIV-1MDR/C) | EC50 (μM), HIV-1MDR/G (SI) (HIV-1MDR/G) | n-fold change of EC50, HIV-1MDR/G (HIV-1MDR/G) | EC50 (μM), HIV-1MDR/TM (SI) (HIV-1MDR/TM) | n-fold change of EC50, HIV-1MDR/TM (HIV-1MDR/TM) | EC50 (μM), HIV-1MDR/B (SI) (HIV-1MDR/B) | n-fold change of EC50, HIV-1MDR/B (HIV-1MDR/B) | EC50 (HIV-1APV5μM) | EC50 (HIV-1SQV5μM) | EC50 (HIV-1AZV5μM) | EC50 (HIV-1LPV5μM) | EC50 (HIV-1NFV5μM) | also measured
1 | CC(C)(C)NC(=O)[C@@H]1CN(Cc2cccnc2)CCN1C[C@@H](O)C[C@@H](Cc1ccccc1)C(=O)N[C@H]1c2ccccc2C[C@H]1O [IDV, Indinavir] | > 1 µM | > 23 | > 1 µM | > 23 | 0.043 ± 0.004 µM | > 1 µM | > 23 | 0.34 ± 0.14 µM | (5) | > 1 µM | > 23 | > 1 µM | > 23 |  |  |  |  |  | EC50 [1]: > 1 µM
2 | Cc1c(O)cccc1C(=O)N[C@@H](CSc1ccccc1)[C@H](O)CN1C[C@H]2CCCC[C@H]2C[C@H]1C(=O)NC(C)(C)C [NFV, Nelfinavir] |  |  |  |  |  |  |  |  |  |  |  |  |  | 0.3 ± 0.03 µM | 0.51 ± 0.081 µM | > 1 µM | 0.32 ± 0.12 µM | > 1 µM | EC50 (HIV-1216-P50): 0.13 ± 0.04 µM; EC50 (HIV-1246-1μM): 0.29 ± 0.006 µM; EC50 (HIV-1396-1μM): 0.22 ± 0.02 µM; EC50 (HIV-1NL4-3; Human immunodeficiency virus 1, MT4, Table 9, mean ± 1 SD, read-out: EC50 (μM), HIV-1NL4-3): 0.04 ± 0.007 µM
3 | CC(C)(C)NC(=O)[C@@H]1C[C@@H]2CCCC[C@@H]2CN1C[C@@H](O)[C@H](Cc1ccccc1)NC(=O)[C@H](CC(N)=O)NC(=O)c1ccc2ccccc2n1 [SQV, Saquinavir] | 0.3 ± 0.02 µM | (37) | 0.19 ± 0.05 µM | (24) | 0.008 ± 0.005 µM | 0.032 ± 0.002 µM | (11) | 0.030 ± 0.002 µM | (4) | 0.26 ± 0.04 µM | (33) | 0.27 ± 0.073 µM | (34) | 0.026 ± 0.01 µM | > 1 µM | 0.031 ± 0.005 µM | 0.028 ± 0.007 µM | 0.003 ± 0.002 µM | n-fold change in EC50, HIV-1APV5 μM (HIV-1APV5μM; [3]): (5); n-fold change in EC50, HIV-1SQV5 μM (HIV-1SQV5μM; [3]): > 200; n-fold change in EC50, HIV-1AZV5 μM (HIV-1AZV5μM; [3]): (6); n-fold change in EC50, HIV-1LPV5 μM (HIV-1LPV5μM; [3]): (6); n-fold change in EC50, HIV-1NPV5 μM (HIV-1NFV5μM; [3]): (1); EC50 (HIV-1NL4-3; Human immunodeficiency virus 1, MT4, read-out: EC50 (μM), HIV-1NL4-3, Table 7, mean ± 1 SD): 0.005 ± 0.002 µM
